{
  "source": "paper PMC10065284",
  "about": "“Protease inhibition, in vitro antibacterial and IFD/MM-GBSA studies of ciprofloxacin-based acetanilides” (PLOS ONE, 2023)",
  "molecular_target": "T1, serine protease",
  "T1 construct": "purified serine protease, indigenously isolated from B. subtilis sp",
  "experiment": "casein hydrolysis assay with purified protease, inhibition kinetics",
  "format": "biochemical, Bacillus subtilis",
  "data": [
    {"smiles": "COC(=O)c1cn(C2CC2)c2cc(N3CCN(CC(=O)Nc4ccccc4)CC3)c(F)cc2c1=O", "note": "[4a, methyl 1-cyclopropyl-6-fluoro-4-oxo-7-(4-(2-oxo-2-(phenylamino)ethyl)piperazin-1-yl)-1,4-dihydro-quinoline-3-carboxylate]", "values": [
      {"measurement": "Ki", "result": 100, "unit": "nM"}
    ]}
  ]
}
